# Results published in BindingDB's records for patent US11466047 (Merck Sharp & Dohme, 2022).
# Biological target: T1, Stimulator of interferon genes protein [R71H,G230A,H232R,R293Q] (Homo sapiens, UniProt Q86WV6, G230A/H232R/R293Q/R71H)
# T1 construct: gene STING1
# Assay: 3H-cGAMP Filtration Binding Assay
# Protocol: The compounds were serially titrated by the Hamilton STARPlus CORE in a 96-well plate (Greiner, #651201) using a 1:3 ten-point dose response format. After compound preparation, a 2.2 ug/ml working concentration of STING membrane (SEQ. ID. No. 1) was prepared by diluting concentrated membrane into assay buffer (lx PBS; Invitrogen #SH30028.02) and douncing 7× using a manual tissue homogenizer (Wheaton, #357546). 148 uL of prepared membrane was then manually added to each well of a 96-well deep-well polypropylene plate (Fisher Scientific, #12-566-121). Following membrane addition, 2 uL of either titrated test compound, DMSO control (Sigma #276855), or cold cGAMP control was added to the appropriate wells using a BIOMEK FX. Compound and membrane then preincubated for 60 min at RT to allow compound binding to equilibrate. Following equilibration, 8 nM of [3H]c-GAMP ligand was prepared by diluting into assay buffer, and 50 uL of this working stock was then manually added to each well of the assay plate. Plates were then incubated at RT for 60 min, and the contents of each assay plate were then filtered through a 96-well GF/B filter plate (PerkinElmer, #6005250) using a TOMTEC MACH III Cell Harvester equipped with 20 mM HEPES buffer (Fisher Scientific, #BP299500). […] Tritium levels for each reaction well were then measured using a PerkinElmer TopCount plate reader.
# T1 sequence (Q86WV6 whole entry R71H/G230A/H232R/R293Q, looked up): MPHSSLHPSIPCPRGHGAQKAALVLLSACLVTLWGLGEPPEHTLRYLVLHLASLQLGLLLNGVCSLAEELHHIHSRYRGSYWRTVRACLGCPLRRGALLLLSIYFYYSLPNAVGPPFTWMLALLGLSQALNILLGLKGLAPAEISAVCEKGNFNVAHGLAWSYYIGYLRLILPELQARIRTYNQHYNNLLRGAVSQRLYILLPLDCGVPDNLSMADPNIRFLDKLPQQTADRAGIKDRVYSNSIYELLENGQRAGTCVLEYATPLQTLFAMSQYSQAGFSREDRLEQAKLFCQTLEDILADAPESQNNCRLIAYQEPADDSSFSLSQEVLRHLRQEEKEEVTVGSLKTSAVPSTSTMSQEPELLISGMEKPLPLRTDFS
smiles,measurement,value
"Nc1nc2c(ncn2[C@@H]2O[C@@H]3COP(=S)(S)O[C@H]4[C@H](F)[C@H](n5cnc6c(=O)[nH]cnc65)O[C@@H]4COP(O)(=S)O[C@@H]2[C@@H]3F)c(=O)[nH]1 (stereo partly specified) [US11466047, Example 27]",EC50,< 1 nM
